Test results: ChEMBL document CHEMBL1201862, “PubChem BioAssay data set” (2004)
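A five-concentration, 48-hour dose response in 96-well plates underlies each endpoint, interpolated linearly between surrounding concentrations. GI50 marks 50% less growth.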 The source made the active and inactive calls. Rule as the data show it: active = GI50 up to about 1.1 µM and inactive = higher.

Experiments:
Assay in all cases: NCI-60 cell line screen, 48 h
A549 = test system: A549
ACHN = test system: ACHN
BT-549 = test system: BT-549
EKVX = test system: EKVX
HOP-92 = test system: HOP-92
HT-29 = test system: HT-29
IGROV-1 = test system: IGROV-1
M14 = test system: M14
MDA-MB-231 = test system: MDA-MB-231
MDA-MB-435 = test system: MDA-MB-435
Malme-3M = test system: Malme-3M
OVCAR-4 = test system: OVCAR-4
OVCAR-5 = test system: OVCAR-5
RXF 393 = test system: RXF 393
SK-OV-3 = test system: SK-OV-3
SNB-75 = test system: SNB-75
SR = test system: SR
DU-145 = test system: DU-145
HL-60 = test system: HL-60

Row | SMILES | GI50 (A549) | GI50 (ACHN) | GI50 (BT-549) | GI50 (EKVX) | GI50 (HOP-92) | GI50 (HT-29) | GI50 (IGROV-1) | GI50 (M14) | GI50 (MDA-MB-231) | GI50 (MDA-MB-435) | GI50 (Malme-3M) | GI50 (OVCAR-4) | GI50 (OVCAR-5) | GI50 (RXF 393) | GI50 (SK-OV-3) | GI50 (SNB-75) | GI50 (SR) | GI50 (DU-145) | GI50 (HL-60)
1 | CC(=O)Nc1ccc(Nc2cc(=O)n(C)c(=O)[nH]2)cc1 | > 100 µM (inactive) | > 100 µM (inactive) | > 100 µM (inactive) | > 100 µM (inactive) | > 100 µM (inactive) | > 100 µM (inactive) | > 100 µM (inactive) | > 100 µM (inactive) | > 100 µM (inactive) | > 100 µM (inactive) | > 100 µM (inactive) | > 100 µM (inactive) | > 100 µM (inactive) | > 100 µM (inactive) | > 100 µM (inactive) | > 100 µM (inactive) | > 100 µM (inactive) | – | –
2 | Oc1ccc2c(c1)OCC(O)(c1ccccc1O)C2 (stereo not given) | – | > 100 µM (inactive) | > 100 µM (inactive) | > 100 µM (inactive) | > 100 µM (inactive) | > 100 µM (inactive) | > 100 µM (inactive) | > 100 µM (inactive) | > 100 µM (inactive) | > 100 µM (inactive) | – | > 100 µM (inactive) | > 100 µM (inactive) | > 100 µM (inactive) | > 100 µM (inactive) | 61.4 µM (inactive) | – | > 100 µM (inactive) | > 100 µM (inactive)
3 | C/N=c1/ss/c(=N\C(SC)=[N+](C)C)n1C.[O-][Cl+3]([O-])([O-])[O-] | > 100 µM (inactive) | > 100 µM (inactive) | – | 80.7 µM (inactive) | > 100 µM (inactive) | 4.98 µM (inactive) | > 100 µM (inactive) | > 100 µM (inactive) | – | – | – | – | > 100 µM (inactive) | > 100 µM (inactive) | > 100 µM (inactive) | – | > 100 µM (inactive) | – | 31.3 µM (inactive)
4 | C/C=C/C(=O)[C@@H](O)C(C)C | > 100 µM (inactive) | > 100 µM (inactive) | – | > 100 µM (inactive) | > 100 µM (inactive) | > 100 µM (inactive) | > 100 µM (inactive) | – | – | – | > 100 µM (inactive) | > 100 µM (inactive) | > 100 µM (inactive) | > 100 µM (inactive) | > 100 µM (inactive) | > 100 µM (inactive) | > 100 µM (inactive) | – | –
5 | NC(=O)NC(=O)Nc1ccc(Br)cc1 | > 16.6 µM (inactive) | > 9.62 µM (inactive) | > 20 µM (inactive) | 14.7 µM (inactive) | > 100 µM (inactive) | 3.46 µM (inactive) | 16.7 µM (inactive) | 18.5 µM (inactive) | > 16.6 µM (inactive) | 9.57 µM (inactive) | > 15.8 µM (inactive) | > 24.3 µM (inactive) | > 21.1 µM (inactive) | – | > 100 µM (inactive) | 3.19 µM (inactive) | – | > 100 µM (inactive) | 4.34 µM (inactive)
6 | Cc1cc(S(=O)(=O)Nc2nc3cc(-c4ccc(Cl)cc4)sc3c(=O)n2N)c(S)cc1Cl | > 100 µM (inactive) | 26.5 µM (inactive) | > 100 µM (inactive) | 82.8 µM (inactive) | 72.9 µM (inactive) | 54.5 µM (inactive) | 59.6 µM (inactive) | > 100 µM (inactive) | 56.6 µM (inactive) | 62.2 µM (inactive) | > 100 µM (inactive) | 64.4 µM (inactive) | 44.2 µM (inactive) | 37.2 µM (inactive) | 63.2 µM (inactive) | > 100 µM (inactive) | – | 37.2 µM (inactive) | –
7 | CC(C)(C)OC/C=C(/CO)[C@@H]1C=C[C@H](O)C1 | > 100 µM (inactive) | > 100 µM (inactive) | > 100 µM (inactive) | > 100 µM (inactive) | – | > 100 µM (inactive) | – | > 100 µM (inactive) | > 100 µM (inactive) | > 100 µM (inactive) | > 100 µM (inactive) | > 100 µM (inactive) | > 100 µM (inactive) | – | > 100 µM (inactive) | > 100 µM (inactive) | – | – | –
8 | COC(=O)c1ccc2c(c1)CC1(C2)Cc2cc3c(cc2C1=O)CCC3 (stereo not given) | 36.7 µM (inactive) | 34.9 µM (inactive) | – | 61.2 µM (inactive) | 28.2 µM (inactive) | 15.4 µM (inactive) | 44.1 µM (inactive) | 19.2 µM (inactive) | 36.4 µM (inactive) | 23.8 µM (inactive) | 27.4 µM (inactive) | 24.7 µM (inactive) | 84.1 µM (inactive) | 30.1 µM (inactive) | 98.6 µM (inactive) | 21.6 µM (inactive) | – | 57.7 µM (inactive) | 16.8 µM (inactive)
9 | CCCCCCCCCCOC1C(C(O)CNCCCN(C)C)OC2OC3(CCCCC3)OC21 (stereo not given) | 3.32 µM (inactive) | 2.81 µM (inactive) | – | 3.71 µM (inactive) | 1.07 µM (active) | 1.62 µM (inactive) | 1.93 µM (inactive) | 2 µM (inactive) | 1.8 µM (inactive) | 2.03 µM (inactive) | 1.99 µM (inactive) | 2.04 µM (inactive) | 1.72 µM (inactive) | 1.93 µM (inactive) | 3.65 µM (inactive) | 0.0491 µM (active) | 0.329 µM (active) | 3.35 µM (inactive) | 1.69 µM (inactive)
10 | O=C(Nc1nccs1)NS(=O)(=O)n1cnc2ccccc21 | > 100 µM (inactive) | > 100 µM (inactive) | > 100 µM (inactive) | > 100 µM (inactive) | > 100 µM (inactive) | > 100 µM (inactive) | > 100 µM (inactive) | > 100 µM (inactive) | > 100 µM (inactive) | > 100 µM (inactive) | > 100 µM (inactive) | > 100 µM (inactive) | > 100 µM (inactive) | > 100 µM (inactive) | > 100 µM (inactive) | > 100 µM (inactive) | – | > 100 µM (inactive) | > 100 µM (inactive)
11 | CC(C)CCNC(=O)c1ccc(CNC(=O)/C=C/c2ccc(-c3ccccc3[N+](=O)[O-])o2)cc1 | 68.2 µM (inactive) | 53.2 µM (inactive) | – | – | > 10 µM (inactive) | – | – | > 100 µM (inactive) | > 100 µM (inactive) | 34.9 µM (inactive) | – | 14.4 µM (inactive) | 81.8 µM (inactive) | > 100 µM (inactive) | > 100 µM (inactive) | 25 µM (inactive) | 91.8 µM (inactive) | 64.9 µM (inactive) | 11.6 µM (inactive)
12 | O=C(Nc1ccc(Cl)cc1)C(=O)C1=C(O)c2ccccc2OC1 | > 100 µM (inactive) | > 100 µM (inactive) | > 100 µM (inactive) | > 100 µM (inactive) | > 100 µM (inactive) | > 100 µM (inactive) | > 100 µM (inactive) | > 100 µM (inactive) | > 100 µM (inactive) | > 100 µM (inactive) | 0.665 µM (active) | > 100 µM (inactive) | > 100 µM (inactive) | – | > 100 µM (inactive) | 33.1 µM (inactive) | – | > 100 µM (inactive) | > 100 µM (inactive)
13 | COc1cc(S(=O)(=O)Nc2ccc(-c3csc(N4C(=O)C(C)SC4c4ccccc4O)n3)cc2)ccc1Cl (stereo not given) | > 100 µM (inactive) | 65.8 µM (inactive) | 27 µM (inactive) | 28.8 µM (inactive) | 31.3 µM (inactive) | 56.9 µM (inactive) | 35.8 µM (inactive) | 40.2 µM (inactive) | – | 37.8 µM (inactive) | 17.9 µM (inactive) | – | 95.1 µM (inactive) | – | > 100 µM (inactive) | 28.8 µM (inactive) | 36.2 µM (inactive) | 41.3 µM (inactive) | 27.3 µM (inactive)
14 | Nc1ccc2c(=O)cc(-c3ccc(Br)s3)[nH]c2n1 | 5.5 µM (inactive) | 7.16 µM (inactive) | – | 7.59 µM (inactive) | 12.7 µM (inactive) | 4.74 µM (inactive) | 3.85 µM (inactive) | 3.12 µM (inactive) | 16.8 µM (inactive) | 0.32 µM (active) | 12.4 µM (inactive) | > 56.6 µM (inactive) | 11.6 µM (inactive) | 3.71 µM (inactive) | 3.94 µM (inactive) | 2.47 µM (inactive) | 0.267 µM (active) | 3.93 µM (inactive) | 2.41 µM (inactive)
15 | CC1(N2CCOCC2)CC2C(=[N+]1[O-])CCC/C2=N/O (stereo not given) | > 100 µM (inactive) | > 100 µM (inactive) | > 100 µM (inactive) | > 100 µM (inactive) | – | > 100 µM (inactive) | > 100 µM (inactive) | > 100 µM (inactive) | > 100 µM (inactive) | > 100 µM (inactive) | > 100 µM (inactive) | > 100 µM (inactive) | > 100 µM (inactive) | > 100 µM (inactive) | > 100 µM (inactive) | 0.334 µM (active) | > 100 µM (inactive) | – | –
16 | S=C(S)N1CCN(c2ccc(Cl)c(Cl)c2)CC1 | 45.8 µM (inactive) | 37.2 µM (inactive) | 51.3 µM (inactive) | 12.9 µM (inactive) | 22.3 µM (inactive) | 20.8 µM (inactive) | 28.7 µM (inactive) | 19.7 µM (inactive) | 21.3 µM (inactive) | 17.6 µM (inactive) | 24.2 µM (inactive) | – | 29.9 µM (inactive) | 56.9 µM (inactive) | – | 20.7 µM (inactive) | – | 25.9 µM (inactive) | 20.9 µM (inactive)
17 | Nc1nc(N)c2cc(S(=O)(=O)c3ccc4ccccc4c3)ccc2n1 | 0.718 µM (active) | 2.74 µM (inactive) | 11.7 µM (inactive) | 8.13 µM (inactive) | 5.86 µM (inactive) | – | 1.5 µM (inactive) | – | 1.62 µM (inactive) | 3.3 µM (inactive) | 14.4 µM (inactive) | – | > 100 µM (inactive) | – | > 100 µM (inactive) | 2.86 µM (inactive) | – | – | > 100 µM (inactive)
18 | O=C1Cc2c([nH]c3ccc(Br)cc23)-c2cc(Br)ccc2N1 | > 100 µM (inactive) | > 100 µM (inactive) | > 100 µM (inactive) | > 100 µM (inactive) | > 100 µM (inactive) | – | – | > 100 µM (inactive) | > 100 µM (inactive) | > 100 µM (inactive) | – | > 100 µM (inactive) | > 100 µM (inactive) | – | > 100 µM (inactive) | – | – | > 100 µM (inactive) | –
